Data as given in US11028090B2 (Dong Wha Pharm. Co., Ltd., priority 2017, dated 2021).
Where two headings read alike, the source gives them in different places.

Experiments:
[1] = biological target: BRD4 (BD1+BD2) bromodomain (Homo sapiens (Human), UniProt O60885); assay: BRD4 binding inhibition (AlphaScreen, GST-BRD4 vs tetraacetylated histone H4 peptide)
In short: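 AlphaScreen read after 30 min dark incubation at room temperature with glutathione acceptor/streptavidin donor beads (10 μg/ml each). The beads were added to compound plus 100 nM biotin-H4 (K5,8,12,16-acetyl) peptide and 100 nM GST-BRD4 BD1+BD2 in pH 7.4 HEPES/Tween/BSA/DTT buffer.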

[2] = system: acute myelogenous leukemia cells (MV-4-11 cells); assay: Cytotoxicity to acute myelogenous leukemia cells (MV-4-11 cells), CCK-8; conditions: Homo sapiens, MV4-11, 72 h
[3] = GST-BRD4 (BD1+BD2) / biotinylated acetyl-histone H4 (Lys5,8,12,16) peptide, read-out: IC50, BRD4 binding inhibition
[4] = GST-BRD4 (BD1+BD2) vs biotinylated acetyl-histone H4 peptide, AlphaScreen, read-out: BRD4 IC50
[5] = read-out: MV-4-11 Cytotoxicity IC50
[6] = read-out: IC50, cytotoxicity against acute myelogenous leukemia cells

SMILES	IC50 [1, 3]	IC50 [1, 4]	IC50 [2, 5]	IC50 [2, 6]
Cc1nnc2c(NCCCCNC(=O)CC(C)C)nc3cc(N)ccc3n12 [Example 245, N-[4-(7-amino-1-methyl-[1,2,4]triazolo[4,3-a]quinoxaline-4-ylamino)-butyl]-3-methyl-butyramide]	≤ 0.05 µM	0.032 µM	0.361 µM	
COc1cc2nc(NCCCCNC(=O)CC(C)C)c3nnc(C)n3c2cc1N [Example 556, N-[4-(8-amino-7-methoxy-1-methyl-[1,2,4]triazolo[4,3-a]quinoxaline-4-ylamino)-butyl]-3-methyl-butyramide]	≤ 0.05 µM	0.031 µM	0.001 µM	≤ 0.2 µM
COc1ccc2c(c1)nc(NCCCCNC(=O)NC1CCCCC1)c1nnc(C)n12 [Example 335, 1-cyclohexyl-3-[4-(7-methoxy-1-methyl-[1,2,4]triazolo[4,3-a]quinoxaline-4-ylamino)-butyl]-urea]	≤ 0.05 µM	0.016 µM	0.04 µM	≤ 0.2 µM
Cc1nnc2c(NCCCCNC(=O)CC(C)C)nc3cc(NS(=O)(=O)CC(F)(F)F)ccc3n12 [Example 258]	≤ 0.05 µM	0.049 µM	0.345 µM	
COc1cc2c(cc1C)nc(NCCCCNC(=O)OCC(C)C)c1nnc(C)n12 [Example 150, [4-(8-methoxy-1,7-dimethyl-[1,2,4]triazolo[4,3-a]quinoxaline-4-ylamino)-butyl]-carbamic acid isobutylester]	≤ 0.05 µM	0.048 µM	0.46 µM	
Cc1nnc2c(NCCCCNC(=O)CC(C)C)nc3cc(OCc4ccccc4)ccc3n12 [Example 346, N-[4-(7-benzyloxy-1-methyl-[1,2,4]triazolo[4,3-a]quinoxaline-4-ylamino)-butyl]-3-methyl-butyramide]	≤ 0.05 µM	0.022 µM	0.079 µM	≤ 0.2 µM
Cc1nnc2c(NCCCCNC(=O)c3ccccc3)nc3cc(OC(F)(F)F)ccc3n12 [Example 273, N-[4-(1-methyl-7-trifluoromethoxy-[1,2,4]triazolo[4,3-a]quinoxaline-4-ylamino)-butyl]-benzamide]	≤ 0.05 µM	0.049 µM	0.51 µM	
COc1ccc2c(c1)nc(NCCCCNC(=O)Cc1ccccc1)c1nnc(C)n12 [Example 329, N-[4-(7-methoxy-1-methyl-[1,2,4]triazolo[4,3-a]quinoxaline-4-ylamino)-butyl]-2-phenyl-acetamide]	≤ 0.05 µM	0.035 µM	0.019 µM	≤ 0.2 µM
CCOc1cc2nc(NCCCCNC(=O)CC(C)C)c3nnc(C)n3c2cc1OCC [Example 177]	≤ 0.05 µM	0.05 µM	0.11 µM	≤ 0.2 µM
COc1cc2c(cc1C)nc(NCCCCNC(=O)[C@@H](O)C(C)C)c1nnc(C)n12 [Example 153, 2-(S)-hydroxy-N-[4-(8-methoxy-1,7-dimethyl-[1,2,4]triazolo[4,3-a]quinoxaline-4-ylamino)-butyl]-3-methyl-butyramide]	≤ 0.05 µM	0.016 µM	0.46 µM	
CCCNc1ccc2nc(NCCCCNC(=O)CC(C)C)c3nnc(C)n3c2c1 [Example 552, 3-methyl-N-[4-(1-methyl-8-propylamino-[1,2,4]triazolo[4,3-a]quinoxaline-4-ylamino)-butyl]-butyramide]	≤ 0.05 µM	0.021 µM	0.157 µM	≤ 0.2 µM
C/C=C/C(=O)NCCCCNc1nc2cc(OCCOC)ccc2n2c(C)nnc12 [Example 379, butene-2-oic acid{4-[7-(2-methoxy-ethoxy)-1-methyl-[1,2,4]triazolo[4,3-a]quinoxaline-4-ylamino]-butyl}-amide]	≤ 0.05 µM	0.017 µM	0.42 µM	
CCc1nnc2c(NCCCCNC(=O)OC(C)C)nc3cc(OC)c(OC)cc3n12 [Example 596, [4-(1-ethyl-7,8-dimethoxy-[1,2,4]triazolo[4,3-a]quinoxaline-4-ylamino)-butyl]-carbamic acid isopropylester]	≤ 0.05 µM	0.019 µM	0.51 µM	
COc1ccc2c(c1)nc(NCCCCNC(=O)[C@@H](NS(C)(=O)=O)C(C)C)c1nnc(C)n12 [Example 327, 2-(S)-methanesulfonylamino-N-[4-(7-methoxy-1-methyl-[1,2,4]triazolo[4,3-a]quinoxaline-4-ylamino)-butyl]-3-methyl-butyramide]	≤ 0.05 µM	0.018 µM	0.14 µM	≤ 0.2 µM
COc1ccc2c(c1)nc(NCCCCNC(=O)NC(C)C)c1nnc(C)n12 [Example 330, 1-isopropyl-3-[4-(7-methoxy-1-methyl-[1,2,4]triazolo[4,3-a]quinoxaline-4-ylamino)-butyl]-urea]	≤ 0.05 µM	0.029 µM	0.14 µM	≤ 0.2 µM
Cc1nnc2c(NCCCCNC(=O)CC(C)C)nc3cc(OCc4ccc(C#N)cc4)ccc3n12 [Example 341, N-{4-[7-(4-cyano-benzyloxy)-1-methyl-[1,2,4]triazolo[4,3-a]quinoxaline-4-ylamino]-butyl}-3-methyl-butyramide]		0.071 µM	0.052 µM	≤ 0.2 µM
COc1cc(C)c2nc(NCCCCN)c3nnc(C)n3c2c1 [Example 159, N^1-(8-methoxy-1,6-dimethyl-[1,2,4]triazolo[4,3-a]quinoxaline-4-yl)-butane-1,4-diamine ditrifluoroacetic acid]	≤ 0.05 µM	0.024 µM	0.53 µM	

Stronger by IC50 [1, 4], values ahead:

IC50 [1, 3]	IC50 [1, 4]	SMILES	IC50 [2, 5]	IC50 [2, 6]
≤ 0.01 µM	0.005 µM	Cc1nnc2c(NCCCCNC(=O)[C@@H](O)C(C)C)nc3ccccc3n12 [Example 10, 2-(S)-hydroxy-N-[4-(1-methyl-[1,2,4]triazolo[4,3-a]quinoxaline-4-ylamino)-butyl]-3-methyl-butyramide]	0.16 µM	
≤ 0.01 µM	0.008 µM	Cc1nnc2c(NCCCCNC(=O)CC(C)C)nc3cc(F)c(F)cc3n12 [Example 37, N-[4-(7,8-difluoro-1-methyl-[1,2,4]triazolo[4,3-a]quinoxaline-4-ylamino)-butyl]-3-methyl-butyramide]	0.121 µM	≤ 0.2 µM
≤ 0.05 µM	0.011 µM	CCCOC(=O)N[C@H](C(=O)NCCCCNc1nc2cc(OC)ccc2n2c(C)nnc12)C(C)C [Example 319, (S)-{1-[4-(7-methoxy-1-methyl-[1,2,4]triazolo[4,3-a]quinoxaline-4-ylamino)-butylcarbamoyl]-2-methyl-propyl}-carbamic acid propylester]	0.114 µM	≤ 0.2 µM
≤ 0.01 µM	0.002 µM	COc1cc2nc(NCCCCNC(=O)[C@@H](O)C(C)C)c3nnc(C)n3c2cc1OC [Example 83, N-[4-(7,8-dimethoxy-1-methyl-[1,2,4]triazolo[4,3-a]quinoxaline-4-ylamino)-butyl]-2-(S)-hydroxy-3-methyl-butyramide]	0.211 µM	
≤ 0.01 µM	0.007 µM	COCCOc1ccc2c(c1)nc(NCCCCNC(=O)OC1CCCC1)c1nnc(C)n12 [Example 371, {4-[7-(2-methoxy-ethoxy)-1-methyl-[1,2,4]triazolo[4,3-a]quinoxaline-4-ylamino]-butyl}-carbamic acid cyclopentylester]	0.119 µM	≤ 0.2 µM
≤ 0.05 µM	0.012 µM	CCC(C)CC(=O)NCCCCNc1nc2cc(OC)ccc2n2c(C)nnc12 (stereo not shown) [Example 289, 3-methyl-pentanoic acid-[4-(7-methoxy-1-methyl-[1,2,4]triazolo[4,3-a]quinoxaline-4-ylamino)-butyl]-amide]	0.026 µM	≤ 0.2 µM
≤ 0.01 µM	0.005 µM	Cc1noc(C)c1-c1ccc2c(c1)nc(NCCCCNC(=O)CC(C)C)c1nnc(C)n12 [Example 585, N-{4-[7-(3,5-dimethyl-isoxazol-4-yl)-1-methyl-[1,2,4]triazolo[4,3-a]quinoxaline-4-ylamino]-butyl}-3-methyl-butyramide]	0.28 µM	
≤ 0.01 µM	0.003 µM	Cc1nnc2c(NCCCCNC(=O)OC3CCCC3)nc3cc(-c4nc5ccccc5n4C)ccc3n12 [Example 229, {4-[1-methyl-7-(1-methyl-1H-benzoimidazole-2-yl)-[1,2,4]triazolo[4,3-a]quinoxaline-4-ylamino]-butyl}-carbamic acid cyclopentylester]	0.15 µM	≤ 0.2 µM
≤ 0.05 µM	0.014 µM	CCC(CC)C(=O)NCCCCNc1nc2cc(OCCOC)ccc2n2c(C)nnc12 [Example 381, 2-ethyl-N-{4-[7-(2-methoxy-ethoxy)-1-methyl-[1,2,4]triazolo[4,3-a]quinoxaline-4-ylamino]-butyl}-butyramide]	0.2 µM	≤ 0.2 µM
≤ 0.01 µM	0.0004 µM	COc1ccc2c(c1)nc(NCCCCNC(=O)C(C)C)c1nnc(C)n12 [Example 281, N-[4-(7-methoxy-1-methyl-[1,2,4]triazolo[4,3-a]quinoxaline-4-ylamino)-butyl]-isobutyramide]	0.158 µM	≤ 0.2 µM
≤ 0.05 µM	0.015 µM	COc1ccc2c(c1)nc(NCCCCNC(=O)CCC(C)C)c1nnc(C)n12 [Example 288, 4-methyl-pentanoic acid-[4-(7-methoxy-1-methyl-[1,2,4]triazolo[4,3-a]quinoxaline-4-ylamino)-butyl]-amide]	0.034 µM	≤ 0.2 µM
